6 compounds from US20220365070A1, “COMPOSITIONS, SYSTEMS, AND METHODS FOR IDENTIFYING A COMPOUND THAT MODULATES ONE OR MORE CHARACTERISTICS ASSOCIATED WITH A RBM20 CONDENSATE AND/OR A RBM20 POLYPEPTIDE” (Dewpoint Therapeutics, Inc., priority 2019, published 2022) can be followed below.

Structures are written as SMILES.

The assay concerns cytoplasmic mutant R636S RBM20 condensates in H9C2 cells. Briefly: Screening assay for compounds that modulate cytoplasmic mutant R636S RBM20 condensates (fluorescence imaging). It is filed as cell-based, rat. The following applies: H9C2 cells transiently transfected with R636S RBM20-Dendra2; 20 μM test compound; incubated 24 hours; versus DMSO. How it is done:
H9C2 cells were engineered using transient transfection to express a mutant R636S RBM20 polypeptide linked to a Dendra2 label. Following transfection, cells were incubated to allow for RBM20 polypeptide expression for about 16 hours. H9C2 cells were seeded into 384-well plates, and admixed with a control (DMSO) or 20 μM test compound, and then incubated for 24 hours prior to fixation, staining (e.g., with DAPI), and capturing of fluorescent images. H9C2 cells not transfected with mutant R636S RBM20 polypeptide served as controls. Three replicates were run for each compound. Fluorescent images of cells, and/or portions of cells, were captured using a DeltaVision wide-field deconvoluted system.
Non-transfected H9C2 cells served as control. […] Their down-regulation levels are indicated as Z score under each panel.
Consider `Cn1ncc(Cl)c1-c1cc(C(=O)N[C@H](CN)Cc2ccc(F)c(F)c2)oc1Cl` [Uprosertib], for which the “effect on cytoplasmic mutant R636S RBM20 condensates” value (shortened to “effect”) is listed as “able to reduce cytoplasmic mutant R636S RBM20 condensates”. Consider `COc1ccc(C[C@H]2NC[C@H](O)[C@H]2OC(C)=O)cc1` [anisomycin], for which the “effect” value is on record as “able to reduce cytoplasmic mutant R636S RBM20 condensates”. As to `CC(C)[C@]12O[C@H]1[C@@H]1O[C@]13[C@]1(O[C@H]1C[C@H]1C4=C(CC[C@@]13C)C(=O)OC4)[C@@H]2O` [Triptolide], the “effect” value is given as “able to reduce cytoplasmic mutant R636S RBM20 condensates”. As for `CN1CCN(Cc2ccc(NC(=O)Cc3ccc(Oc4cc(NC(=O)C5CC5)ncn4)cc3)cc2C(F)(F)F)CC1` [WS6], the “effect” value is recorded as “able to reduce cytoplasmic mutant R636S RBM20 condensates”.

Take `O=C1Nc2cc(Br)ccc2/C1=C1/Nc2ccccc2/C1=N\O` [BIO]: the “effect” value is “able to reduce cytoplasmic mutant R636S RBM20 condensates”.

In the case of `CCN(CC)CCCC(C)Nc1c2ccc(Cl)cc2nc2ccc(OC)cc12.Cl.Cl` (stereo not drawn) [Quinacrine 2HCl], the “effect” value is reported as “increased cytoplasmic mutant R636S RBM20 condensates”.
